{"source": "patent US20240008478A1", "about": "“Composition and Methods for Managing and Controlling Lepidopteran Insects” (priority 2022, published 2024)", "key": {"[1]": {"tested_on": "H. zea", "settings": "hollow fiber formulation; 12-ha maize field; cited from earlier work"}, "[2]": {"tested_on": "moths", "assay": "Brazilian cotton field trial, compared with grower's standard methomyl cover spray (dead moth counts)", "type": "in vivo, noctuid moths", "settings": "methomyl alone sprayed over the entire crop, grower's standard rate; for 5 days after the application", "protocol": "Initial work on products of the present disclosure consisted of a blend of oleoresins designed to mimic the attractive volatiles used by adult noctuids to identify sugar-rich sources of floral nectar. This blend also contains a number of sugar-based and proteic phagostimulants (feeding stimulants) to encourage the target insects to feed on the formulation to full engorgement. When a pesticide is added to this product, these components encourage megadose intake of the incorporated killing agent. This minimizes the risk of sub-lethal exposure, a contributing factor to the development of resistance. To further reduce the risk of resistance, the product may be designed as a tank mix to be blended with a small dose of the user's pesticide of choice just prior to application. This characteristic makes the product an extremely adaptable pest management solution and lends itself well to pesticide rotation programs. The product was originally tested in cotton and soybean fields in South America, where noctuid pests pose a significant economic threat to multiple crops. […]"}}, "note": "Counter-ions that a name gives are not always drawn."}
{"molecule": "CCCC/C=C\\CCCCCCCCOC=O", "note": "[(Z)-9-tetradecenyl formate]", "values": [{"measurement": "rate of mating", "setting": "[1]", "value": "cut in half"}]}
{"molecule": "CNC(=O)ON=C(C)SC", "note": "[methomyl]", "values": [{"measurement": "dead moths recovered", "setting": "[2]", "value": "no or very few dead moths"}]}
